Like-named read-outs stand apart in the source and are kept apart here.
Experiments:
TrkB stable cells SHSY5Y = experiment: Cytoprotective effect in TrkB stable cells SHSY5Y, 96 hrs; type: cell-based, human; conditions: Homo sapiens, SH-SY5Y, 96 h
Method: In another experiment, the cytoprotective effect of A1 as well as parent molecule B1 was determined in TrkB stable cells SHSY5Y.

[1] = Cell viability assay in differentiated neuronal cells (MTT), N2A; type: cell-based; conditions: mouse, read-out: % Cell viability ± SD, N2A
Description: (§1) In the present disclosure outlined herein, a focused library of cannabidiol analogues were studied for possible neuro-protective potential employing cell line-based stress model systems which mimic the biological stress conditions in vitro (J Cell Biochem., 2018, 119(8), 6482-6491).
(§2) Human neuroblastoma cells (SHSY5Y) and mouse neuroblastoma cells (N2A) were procured from American Type Culture Collection (ATCC). SHSY5Y cell cultures were maintained in DMEM F12 (Invitrogen) whereas N2A were cultured in DMEM (Invitrogen) with 10% Fetal Bovine Serum (Gibco) medium, subjected to differentiation to acquire neuronal morphology (employing differentiation media DMEM-F12, 3-5% FBS, (For differentiation, low concentration of FBS was used) and 50 μM retinoic acid). Differentiated cells were later seeded into 96 well plates, at a density of 1×10^4 before being incubated for 48 hrs with the synthesized library. The exhausted culture media was substituted with new culture media containing 0.5 mg/ml MTT dye. Eventually, the OD at 490 nm excitation was measured using a 96-well plate reader. The proportion of viable cells was determined as percentage of absorbance of untreated cultures relative to control.

[2] = Cell viability assay in differentiated neuronal cells (MTT), SHSY5Y; type: cell-based; conditions: human, read-out: % Cell viability ± SD, SHSY5Y
Description: as §1, §2

[3] = system: nitric oxide (NO) production in RAW264.7 macrophages; experiment: In vitro anti-inflammatory activity: nitric oxide production (Griess) in LPS-exposed RAW264.7 macrophages; type: cell-based, mouse; conditions: LPS 24 hrs
Method: Measurement of Nitric oxide: RAW264.7 macrophages were seeded in 96-well plates with a density of 0.5×10^5 cells/well and incubated overnight at 37° C. in a 5% CO2 atmosphere. The cells were treated with different concentration of CBD and its analogues and exposed to LPS for 24 hrs. For nitric oxide (NO) determination, the cell culture supernatant was taken and mixed with equal volume of Griess reagent in another 96 well plate at room temperature (Biomed Pharmacother., 2017, 92, 175-186). The absorbance was measured at 540 nm. The final calculations were determined on a NaNO2 standard curve.

[4] = Cell viability assay in macrophage RAW264.7 cells (MTT); type: cell-based; conditions: mouse, read-out: % cell viability ± SD
Method: RAW264.7 cells were seeded in 96-well cell culture plates at a density of 1×10^4 cells per well and incubated overnight at 37° C. with 5% CO2. Next day, the cells were treated with CBD or its derivatives at 5 μM and/or 10 μM concentration for 24 hrs. The MTT dye (2.5 mg/ml, 20 μL) was added to each well 4 hrs before termination (Molecules. 2022, 27, 8068). After 4 hrs of incubation with MTT, the supernatant was discarded, and the formazan crystals were dissolved by adding 100 μL DMSO. The absorbance was recorded at 540 nm on microplate reader (Tecan Infinite Pro).

[5] = In vivo corticosterone induced depression model: effect on body weight; parameters: species or system mouse (male C57); conditions: Cort. alone 35 μg/ml, negative control, 21 days
Method: (§3) In vivo efficacy (ameliorates behavioral despair) of A1 in corticosterone induced model of stress (J. Neurochem., 2018 146, 722 734). […] A1 (20 mg/kg, oral) dissolved in normal saline was given for 3 consecutive weeks following corticosteroid stress. The sucrose preference test was employed, tail suspension test, and forced swim test to evaluate behavioral distress. We noticed that A1 can resurrect mice in stressful situations. […]

p-Erk 44/42 [6] = experiment: Survival pathway protein expression by western blotting in SHSY5Y; type: cell-based, human; conditions: Cort. 400 μM, 6 hrs
p-AKT 473 = experiment: as above; type: cell-based, human
Method: (§4) Here, A1 was tested to find its role in eliciting survival pathway proteins in differentiated human neuroblastoma cells in concentration and time dependent manner.
To investigate the effect of A1 on the survival proteins, […] of survival proteins, including p-Erk 44/42, p-AKT 473, Anti BDNF, and p TrkB 816 and p TrKB 515 by western blotting.

depression mice model [7] = experiment: In vivo corticosterone induced depression model: Forced Swim Test; parameters: species or system mouse (male C57); conditions: Cort. alone 35 μg/ml
Method: as §3
The forced swim test was employed to evaluate behavioral melancholy in depressed subjects. Each animal was individually conditioned in a glass cylinder 20 cm long, 10 cm deep and 14 cm radius of curvature. After being submerged in water for 5 mins, the mice's cumulative stationary episode, struggle in water, and eventual floating condition were evaluated. The duration for which the animals were motionless while attempting to hold both of their front limbs still was calculated by interpreting the visualizations portraying behavioral despair (Front Behav Neurosci., 2018, 12, 42).

Anti BDNF [8] = experiment: Survival pathway protein expression by western blotting in SHSY5Y; type: cell-based, human; conditions: Cort. 400 μM, 6 hrs
depression mice model [9] = experiment: In vivo corticosterone induced depression model: Tail Suspension Test (TST); parameters: species or system mouse (male C57); conditions: Cort. alone
Method: A1 (20 mg/kg, oral) dissolved in normal saline was given for 3 consecutive weeks following corticosteroid stress. The sucrose preference test was employed, tail suspension test, and forced swim test to evaluate behavioral distress.
Tail Suspension Test (TST) is a behavioral test employed to assess perturbations expected to influence depression like phenotypes. TST is grounded on the reflection that the extent of immobility is allied with depressing phenotype of mice overturned by antidepressants. Mice were positioned 2 cm from their tail tips and 5 cm above the ground suspending the tails using adhesive tape for the free movement (Acta Neuropathol Commun., 2016, 4(1), 108).
The contemporary immobility was alluded to as interruption in motion, where a blind assessor evaluates the disappointed aspect of display before scoring it.

p-Erk 44/42 [10] = experiment: Survival pathway protein expression by western blotting in SHSY5Y; type: cell-based, human; conditions: after corticosterone insult
Method: as §4
(§5) To investigate the effect of A1 on the survival proteins, SHSY5Y cell cultures were treated with different concentrations for 6 hrs and analyzed for the expression of survival proteins, including p-Erk 44/42, p-AKT 473, Anti BDNF, and p TrkB 816 and p TrKB 515 by western blotting.

p TrkB 816 = experiment: as above; type: cell-based, human
Method: as §4, §5

p TrkB 515 = experiment: as above; type: cell-based, human
Method: as §4, §5

Anti BDNF [11] = experiment: as above; type: cell-based, human; conditions: after corticosterone insult
Method: as §4, §5

depression mice model [12] = experiment: In vivo corticosterone induced depression model: sucrose preference test; parameters: species or system mouse (male C57); conditions: Cort. alone, negative control, 2% sucrose, 21 days
Method: as §3
Sucrose consumption was employed to evaluate anhedonia, a core hallmark of depression in mice. The animals were allowed unfettered access to both identical bottles, one containing water while the other contained a 2% solution of sucrose, for 21 days.
The below equation was later employed to determine water and sugar consumed by mice:
Sucrose Preference=Sucrose consumed[…]/Total fluid intake.

## C=C(C)[C@@H]1CCC(C)=C[C@H]1c1c(O)cc(CCCCC)cc1O [B1, cannabidiol]
TrkB stable cells SHSY5Y; read-out: % Cell viability ± SD, test compound 20 μM + Cort. 400 μM, 96 hrs
  viability at 20 µM: 86.7 ± 1.16%
TrkB stable cells SHSY5Y; read-out: % Cell viability ± SD, test compound alone, 20 μM, 96 hrs
  viability at 20 µM: 102 ± 1.06%
[1]
  viability at 48 h, 20 µM: 107 ± 1.53%
[2]
  viability at 48 h, 20 µM: 108 ± 1.13%
[3]; Mus musculus, RAW264.7, 5 μM, read-out: % NO Inhibition ± SD
  inhibition at 5 µM: 24.3 ± 3.2%
[3]; Mus musculus, RAW264.7, 10 μM, read-out: % NO Inhibition ± SD
  inhibition at 10 µM: 38.3 ± 3.7%
[3]; pre-treated
  production of NO (in words): decreased
[4]; RAW264.7, 5 μM
  viability at 24 h, 5 µM: 95.5 ± 1.5%
[4]; RAW264.7, 10 μM
  viability at 24 h, 10 µM: 91 ± 1.6%

## C[C@]12C[C@H](O)[C@H]3[C@@H](CCC4=CC(=O)CC[C@@]43C)[C@@H]1CC[C@@H]2C(=O)CO [Cort., corticosterone, reference compound]
[5]
  Weight (g) ± SD: 29.57 ± 3.90 g
[5]; listed as corticosterone
  Weight (g) ± SD: 27.40 ± 1.91 g
p-Erk 44/42 [6]
  Relative Protein Expression p ERK 44/42: 0.36
p-AKT 473; Cort. 400 μM, 6 hrs
  Relative Protein Expression PAKT 473: 0.01
p-AKT 473; after corticosterone insult
  p-AKT 473 level (in words): decrease
Depression mice model [7]
  % Immobility (sec) ± SD (dead time): 67.15 ± 12.32 s
  % Latency to immobility (sec) ± SD: 16.14 ± 5.68 s
Anti BDNF [8]
  Relative Protein Expression Anti BDNF: 0.10
Depression mice model [9]
  % Immobility (sec) ± SD (dead time): 52.32 ± 9.96 s
  % Latency to immobility (sec) ± SD: 6.97 ± 4.52 s
Depression mice model [9]; listed as corticosterone
  % Immobility (sec) ± SD (dead time): 52.32 ± 9.96 s
  % Latency to immobility (sec) ± SD: 6.97 ± 4.52 s
p-Erk 44/42 [10]
  p-Erk 44/42 level (in words): decrease
P TrkB 816; Cort. 400 μM, 6 hrs
  Relative Protein Expression p TrkB 816: 0.36
P TrkB 816; after corticosterone insult
  p TrkB 816 level (in words): decrease
P TrkB 515; Cort. 400 μM, 6 hrs
  Relative Protein Expression p TrkB 515: 0.15
P TrkB 515; after corticosterone insult
  p TrkB 515 level (in words): decrease
Anti BDNF [11]
  anti BDNF level (in words): decrease
Depression mice model [12]
  % Sucrose consumption (ml) ± SD: 43.50 ± 3.35%
Depression mice model [12]; listed as corticosterone
  % Sucrose consumption (ml) ± SD: 43.50±3.35%
